Columns and labels:
HUVECs = assay: Nitric oxide production in endothelial cells (DAF2-DA fluorescence); type: cell-based, human; settings: 24 hours incubation
Method: c. HGF and compounds of the invention stimulate nitric oxide production in endothelial cells. HUVECs are incubated with either vehicle, HGF/SF, instant compounds, or SNAP for 24 hours, loaded with the nitric oxide-sensitive fluorescence indicator DAF2-DA and imaged under a laser scanning confocal microscope.

MDCK cells = assay: Anti-apoptotic activity in cultured cell lines (adriamycin-induced apoptosis); type: cell-based
From the text: a. HGF/SF and instant compounds have significant anti-apoptotic activity in cultured cell lines.

[1] = system: NIH-3T3 cells transfected with the gene for the c-met receptor; assay: Protection from apoptosis in NIH-3T3 cells transfected with c-met receptor (MTT assay); type: cell-based
From the text: b. Protection from apoptosis in NIH-3T3 cells transfected with c-met receptor.

[2] = system: LX2 cells (an immortalized human hepatic stellate cell line); assay: Antifibrotic activity in hepatic stellate cells; type: cell-based; settings: serum starved (activated) LX2 cells
From the text: a. Antifibrotic Activity in Hepatic Stellate Cells.

| Compound | Nitric oxide production (DAF2-DA fluorescence) (HUVECs) | Adriamycin-induced apoptosis (MDCK cells; MDCK cells) | Cell viability (MDCK cells; pretreatment, HUVEC and MDCK cell lines) | Protection from adriamycin-induced apoptosis (MTT assay) [1] | Collagen I mRNA expression [2] |
| --- | --- | --- | --- | --- | --- |
| CC(=O)N[C@@H](C(=O)O)C(C)(C)SN=O (racemic) [SNAP, reference compound] | significant increase in fluorescence | – | – | – | – |
| HGF/SF: pleiotropic growth factor; heparin-binding heterodimeric protein composed of a 62 kDa α chain and a 34 kDa β chain | significant increase in fluorescence | significantly block adriamycin-induced apoptosis | significantly improves the cell viability | protect the cells from adriamycin-induced apoptosis | decrease in collagen I mRNA expression |
